Experimental data published in PubChem BioAssay (NCI).
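Compound exposure: 48 hours, 5 concentrations, 96-well plates. GI50: concentration for 50% inhibition of growth. TGI: concentration producing complete growth inhibition.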

What was measured:
Assay in all cases: NCI anticancer screen, dose series, 48 h
CCRF-CEM leukemia = system: CCRF-CEM leukemia
HCC-2998 colon = system: HCC-2998 colon
OVCAR-3 ovarian = system: OVCAR-3 ovarian
OVCAR-4 ovarian = system: OVCAR-4 ovarian
OVCAR-8 ovarian = system: OVCAR-8 ovarian
SF-268 CNS = system: SF-268 CNS
SNB-75 CNS = system: SNB-75 CNS
U251 CNS = system: U251 CNS
UACC-257 melanoma = system: UACC-257 melanoma
UO-31 renal = system: UO-31 renal

Row | SMILES | TGI (CCRF-CEM leukemia) [µM] | TGI (HCC-2998 colon) [µM] | TGI (OVCAR-3 ovarian) [µM] | TGI (OVCAR-4 ovarian) [µM] | TGI (OVCAR-8 ovarian) [µM] | TGI (SF-268 CNS) [µM] | TGI (SNB-75 CNS) [µM] | TGI (U251 CNS) [µM] | TGI (UACC-257 melanoma) [µM] | TGI (UO-31 renal) [µM] | GI50 (CCRF-CEM leukemia) [nM] | GI50 (HCC-2998 colon) [nM] | GI50 (OVCAR-3 ovarian) [nM] | GI50 (OVCAR-4 ovarian) [nM] | GI50 (OVCAR-8 ovarian) [µM] | GI50 (SF-268 CNS) [µM] | GI50 (SNB-75 CNS) [nM] | GI50 (U251 CNS) [nM] | GI50 (UACC-257 melanoma) [nM] | GI50 (UO-31 renal) [nM]
1 | C=CCC1(CN(C)C)CC/C(=C\c2ccc(OC)cc2)C1=O (stereo not given) | > 100 | > 100 | > 100 | > 100 | > 100 | > 100 | > 100 | > 100 | > 100 | > 100 |  |  |  |  |  |  |  |  |  | 
2 | COc1cc(/C=C2\CC3C4CC=C5C[C@@H](OC(C)=O)CC[C@]5(C)C4CC[C@]3(C)C2=O)ccc1OCCN1CCCCC1 (stereo not given in full) | 3.35 | 6.59 | 5.29 | 49 | 28.2 | 31.4 | 56.9 | 8.26 | > 100 | 4.99 | 1250 | 2700 | 2050 | 15100 | 4.27 | 3.39 | 27300 | 2410 | 3850 | 1980
3 | CC(C)(O)C(O)COc1c2c(cc3oc(=O)ccc13)OCO2 (stereo not given) | > 100 | > 100 | > 100 | > 100 | > 100 | > 100 | > 100 | > 100 | > 100 | > 100 |  |  |  |  |  |  |  |  |  | 
4 | CC1Cc2c(Cl)ncnc2N(C)c2ccc(Cl)cc21 (stereo not given) | > 100 | 58.1 | 0.477 | > 100 | 20.6 | 18.2 | > 100 | > 100 | 78.5 | > 100 | 510 | 307 | 210 | 422 | 0.394 | 0.319 | 79.5 | 378 | 429 | 337
5 | O=C(C(=O)c1cc2ccccc2[nH]1)c1cc2ccccc2[nH]1 | > 347 | > 347 | 95.7 | 299 | > 347 | > 347 | > 347 | > 347 | > 347 | > 347 |  |  |  |  |  |  |  |  |  | 
6 | CN[C@H]1CN(c2ccc3c(=O)c(C(=O)O)cn(-c4nccs4)c3n2)C[C@@H]1OC | > 22.9 | 3.58 | 6.48 | 9.22 | 3.73 | 6.49 | 2.55 | 7.23 | 2.83 | 2.93 | 316 | 856 | 1820 | 2270 | 0.457 | 0.706 | 637 | 420 | 1110 | 566
7 | Nc1nc(/C=C\c2ccc([N+](=O)[O-])s2)nc(N2CCN(c3ccccc3)CC2)n1 | 79.1 | 44.8 | 35.9 | > 100 | 52.7 | 80 | 60.5 | 56 | 44.2 | 43.7 | 29300 | 22200 | 19000 | 40600 | 22.2 | 27.2 | 33100 | 21600 | 20800 | 18700
8 | C=CN(C(=O)N1CCN(c2cc3c(cc2F)c(=O)c(C(=O)O)cn3C2CC2)CC1)c1nc(-c2ccc(OC)cc2)cs1 | > 100 | > 100 | > 100 | > 100 | 15.5 | > 100 | 6.7 | 13.4 | 7.18 | > 100 | 3450 | 5120 | 3290 | 3960 | 3.3 | 4.14 | 2510 | 4040 | 2970 | 2100
9 | COc1cc2c(cc1OC(C)C)[C@H](c1ccc(Cl)cc1)N(c1ccc(N(C)CC3CCC(N4CCN(C)C(=O)C4)CC3)cc1)C(=O)C2 (stereo not given in full) | 7.48 | 7.07 | 7.07 | 9.85 | 20.3 | 8.72 | 8.68 | 8.44 | 6.92 | 2.22 | 2610 | 2590 | 2600 | 2990 | 5.86 | 3.01 | 2950 | 3340 | 1400 | 305
10 | CSc1ccc2c(cc1=O)[C@@H](NC(=O)c1cccc([N+](=O)[O-])c1)CCc1cc(O)c(O)c(O)c1-2 | > 100 | > 100 | > 100 | > 100 | > 100 | > 100 | 86.1 | 51.5 | > 100 | > 100 |  |  |  |  |  |  |  |  |  | 
11 | COc1ccc(Cc2c3cc(O)c(=O)cc-3ccn2C)cc1 | > 76.3 | > 100 | > 100 | > 100 | > 100 | 98.2 | > 100 | > 100 | > 89.8 | > 73 |  |  |  |  |  |  |  |  |  | 
12 | O=C1C=C(Nc2ccc(Cl)cc2Cl)c2ccccc2C1=O | 85 | > 100 | > 100 | > 100 | > 100 | > 100 | 70.4 | > 100 | > 100 | > 100 |  |  |  |  |  |  |  |  |  | 
13 | OCC1C(OCc2ccccc2)C(OCc2ccccc2)C(OCc2ccccc2)CN1Cc1ccccc1 (stereo not given) | > 100 | > 100 | > 100 | > 100 | > 100 | > 100 | 31.2 | > 100 | 81 | 37.3 |  |  |  |  |  |  |  |  |  | 
14 | Clc1c(Cl)[n+](Cc2ccc3ccccc3c2)cn1Cc1ccc2ccccc2c1 | 7.06 | 3.05 | 2.69 | 3 | 3.3 | 2.55 | 2.21 | 2.94 | 3.51 | 4.56 | 2890 | 1530 | 1340 | 1360 | 1.65 | 1.22 | 836 | 1530 | 1740 | 1720
15 | Cc1c(-c2cnccn2)ssc1=S | > 77.4 | > 100 | > 100 | > 100 | > 100 | 99 | 59.8 | > 100 | 38.1 | > 89.7 |  |  |  |  |  |  |  |  |  | 
